{
  "source": "patent US20090011935A1",
  "about": "“Method of Inducing Tolerance of Plants Against Bacterioses” (BASF SE, priority 2006, published 2009)",
  "tested_on": "bacteria",
  "experiment": "Effect of metiram alone on bacteria",
  "data": [
    {"substance": "metiram", "values": [
      {"measurement": "effect on bacteria", "result": "very close to zero"}
    ]}
  ]
}
